Measured values from US20250215403A1, “Compositions and Methods for Cardiac Tissue Regeneration” (Temple University - Of The Commonwealth System Of Higher …, priority 2022, published 2025).

B1: PSPH: modRNA encoding phosphoserine phosphatase (ORF SEQ ID NO: 5) (nucleic acid)
DNA: ATGGTCTCCCACTCAGAGCTGAGGAAGCTCTTCTGTTCAGCGGATGCAGTGTGCTTTGATGTTGATAGCACCGTCATCAGAGAAGAAGGAATCGATGAGCTGGCCAAATTCTGTGGTGTGGAGGCCGCAGTGTCTGAAATGACACGGAGAGCCATGGGAGGAGCATTGCCTTTTAAAGACGCGCTCACTCAGCGCCTGGCACTGATCCAGCCCTCCAGGGATCAAGTCCAGAGGCTCCTAGCTGAGCACCCGCCACATCTGACTCCTGGCATAAGGGAGCTGGTAAGCCGCCTCCAGGAGCGTAATGTCCAGGTGTTCCTCATCTCTGGTGGCTTTCGGAGCATTGTGGAGCACGTTGCTGCAAAGCTCAATATCCCAACAACCAATGTGTTTGCCAATAGGCTGAAGTTCTACTTTAATGGTGAGTACGCAGGTTTTGATGAGATGCAGCCGACAGCCGAGTCGGGTGGGAAAGGAAAGGTTATTCGGTTTTTAAAGGAAAAATTTCACTTTAAGAAAATAATCATGATTGGAGATGGAGCTACGGACATGGAAGCCTGTCCTCCTGCTGATGCTTTCATTGGCTTTGGAGGCAATGTGATCAGGCAGCAGGTTAAGGACAACGCCAAGTGGTACATCACTGACTTCGTGGAGCTGCTGGGAGAACTGGAGGAGTGA
modifications: modRNA

How the values were obtained:
cardiomyocytes (CM) [1] = experiment: Mouse MI model: immunostaining of heart sections for CM cell cycle markers (ki67, pH3, BrdU, Aurora B); type: in vivo; conditions: SSP gene modRNA delivery; 7 days post-MI
Description: (§1) All surgical and experimental procedures with mice were performed in accordance with protocols approved by Institutional Animal Care and Use Committees at Temple University Animal Care and Use Committee (IACUC). C57BL6 or CM-specific MADM mice (8-12-weeks-old) were anesthetized with isoflurane. MI was induced by permanent ligation of the LAD, as previously described (Garikipati, V. N. S., et al., 2019, Nature Communications, 10:4317). Briefly, the left thoracic region was shaved and sterilized. After intubation, the heart was exposed through a left thoracotomy. A suture was placed to ligate the LAD. The thoracotomy and skin were sutured closed in layers. Excess air was removed from the thoracic cavity, and the mouse was removed from ventilation when normal breathing was established. In order to determine the effect of modRNA on cardiovascular outcome after MI, modRNAs (100 μg/heart) were injected into the infarct zone immediately after LAD ligation (Magadum A., et al., Circulation. 2020, 141 (15): 1249-1265). For examination of heart histology, hearts were collected at the end of each study, quickly washed in PBS, weighed, and fixed in 4% PFA for cryo-sectioning and immunostainings. In all experiments, the surgeon was blinded to the treatment group. For assessment of heart histology, hearts were collected at the end of each study. The hearts were excised, briefly washed in PBS, perfused with perfusion buffer, weighed and fixed in 4% PFA at 4° C. overnight. The heart blocks were transverse sectioned at 6-8 μm using cryostat. The heart sections were further processed for histological evaluation using immunostaining (see below) or histological scar staining using Masson's trichrome staining kit (Sigma) according to standard procedures. Measuring the ratio of heart weight to body weight was done using a scale. This ratio was calculated as the heart tissue weight relative to the mouse total body weight in grams (g).
Mice were injected with AAV9-GFP or AAV9-YAP1-shRNA (GeneCopoeia) through retro-orbital injection 7 days before LAD. A total of 5×10^11 viral genomes (50 μl total volume delivered) was injected per mouse. The level of YAP1 inhibition was determined at the mRNA level by qPCR 14 days post injection.
Mice hearts were harvested, weighed, and fixed in 4% PFA/PBS overnight on shaker and then washed with PBS for 1 hour and incubated in 30% sucrose/PBS at 4° C. for 12-18 hours. Hearts were then fixed in OCT and frozen at −80° C. (Magadum A., et al., Circulation. 2020, 141 (15): 1249-1265). Transverse heart sections (6-8 μm) were made using a cryostat. Frozen sections were rehydrated in PBS for 5-10 min followed by permeabilization with PBS with 0.1% Triton™ X100 (PBST) for 7-8 min. Heart sections were then treated with 3% H2O2 for 5 min and washed (3×5 min) with PBST. The samples were then blocked with PBS+10% Donkey normal serum+0.1% Triton™ X100 (PBSST) for 1 hour at room temperature. Primary antibodies (see complete list of primary antibodies used for this Example in Table 2 below) diluted in PBST were added and incubated overnight at 4° C. Slides were washed with PBST (3×5 min) followed by incubation with a secondary antibody (Invitrogen, 1:200) diluted in PBST for 90-120 min at room temperature. The samples were further washed with PBST (3×5 min) and stained with DAPI or Hoechst 33342 (1 μg/ml) diluted in PBST for 7 min. After being washed with PBST (3×7 min) and tap water (1×5 min) slides were mounted with mounting medium (VECTASHIELD®) for imaging (Magadum A., et al., Circulation. 2020, 141 (15): 1249-1265). Stained slides were stored at 4° C. All staining was performed on 4-8 hearts/group, with 2-3 sections/heart. For immunostaining with wheat germ agglutinin (WGA) for CM size quantification, images were captured at 40× magnification, and ImageJ was used to determine the area of each cell. […]

cardiomyocytes (CM) [2] = experiment: Mouse MI model: TUNEL staining of CM apoptosis; type: in vivo; conditions: SSP gene modRNA delivery; 7 days post-MI
Description: as §1
Mice hearts were harvested, weighed, and fixed in 4% PFA/PBS overnight on shaker and then washed with PBS for 1 hour and incubated in 30% sucrose/PBS at 4° C. for 12-18 hours. Hearts were then fixed in OCT and frozen at −80° C. (Magadum A., et al., Circulation. 2020, 141 (15): 1249-1265). Transverse heart sections (6-8 μm) were made using a cryostat. […] For immunostaining with wheat germ agglutinin (WGA) for CM size quantification, images were captured at 40× magnification, and ImageJ was used to determine the area of each cell. Quantitative analyses involved counting of multiple fields from 5-8 mouse hearts per group, and 3-4 sections/heart (˜50 cells per field assessed, for a total ˜250 cells per sample). […] BrdU positive CMs were counted in multiple fields from three independent samples per group and 3 sections/heart. […]

Molecule | CM cell cycle (pH3+ CMs) (cardiomyocytes (CM) [1]) | CM apoptosis (TUNEL+ CMs) (cardiomyocytes (CM) [2])
PHGDH: modRNA encoding phosphoglycerate dehydrogenase (ORF SEQ ID NO: 6) | partially induced | inhibited
B1 | partially induced | inhibited
